Patent publication US9458437B2, “Neuroprotective peptides that inhibit interaction between palmitoyl acyl transferase zinc-finger DHHC type containing 17 (zD17) and c-jun N-terminal kinase (JNK)” (The University of British Columbia, priority 2011, dated 2016)

Legend:
[1] = target: T1, JNK3 (Rattus norvegicus, UniProt P49187); experiment: kinase assay (KA) on JNK3 immunoprecipitated from cell lysates; format: cell-based; details: for JNK3 activity normalized to 0 h: NMDA + NIMoE
T1 construct: cell lysates were prepared and JNK was immunoprecipitated with specific antibodies; endogenous in cells; host or cells: rat primary neuronal cultures; JNK3 immunoprecipitated from lysate
Protocol: (§1) JNK activity was measured with an in vitro kinase assay as described elsewhere (see, for e.g.: Khatlani et al., 2007). Briefly, cell lysates were prepared and JNK was immunoprecipitated with specific antibodies. The immnoprecipitates were then resuspended in 1× kinase buffer (Cell Signaling Technology™) supplemented with 200 μM ATP and 250 μg/ml GST-c-jun (1-89), and incubated at 30° C. for 30 min. Reactions were terminated by the addition of SDS-PAGE sample buffer. Phosphorylated c-jun was resolved by SDS-PAGE and detected with anti-p-c-jun.

[2] = target: zD17-JNK3 interaction (Rattus norvegicus, UniProt P49187); experiment: co-immunoprecipitation of zD17 with JNK3 in cortical neuronal cultures; format: cell-based; set-up: diminished the co-immunoprecipitation of zD17 with JNK3; endogenous in cells; host or cells: primary cortical neurons of embryonic (E18-19) Wistar rat
Protocol: All animal experiments were approved by the Animal Care Committee of the University of British Columbia. Primary cortical cultures were prepared from Wistar rat (UBC Animal Care Centre, Vancouver, BC, Canada) brains at embryonic days 18-19. Cultures were maintained in Neurobasal medium supplemented with B27 and 0.5 mM glutamax (Invitrogen™) as described previously (Yang et al., 2009).
The protocols for protein extraction have been described previously (Yang et al., 2009). For co-immunoprecipitation, cultured cells were washed with ice-cold PBS followed by incubation with 0.5 ml Gentle Lysis Buffer (GLB) containing 25 mM Tris-HCl (pH 7.4), 2 mM EDTA, 1 mM EGTA, 10 mM NaCl, 0.5% Triton X-100 and 10% Glycerol supplemented with the Complete Protease Inhibitor Tablets (Roche Applied Science™, Indianapolis, Ind., USA) and 1 mM PMSF. Total protein concentration was determined with the BioRad™ Protein Assay kit. Lysates were first precleaned by incubating with Protein A-Sepharose beads (Roche Applied Science™) for 1 h at 4° C., followed by incubation with indicated antibodies (>16 h at 4° C.) and protein A Sepharose bead (2 h at 4° C.). Lysates of rat brain tissues were precleaned with IgG and protein A-beads. Immunoprecipitates were washed three times with GLB buffer; boiled in 2× loading buffer with 1 mM dithiothreitol (DTT) for 3 min; and analyzed with SDS-PAGE as described previously (Yang et al., 2009). The relative intensities of the bands on immunoblots were analyzed and quantified using Image J™ (NIH).

[3] = system: middle cerebral artery occlusion (MCAo); experiment: transient MCAo in SD rats, neurological scores; format: in vivo, Sprague-Dawley rat; set-up: key: summed neurological score, 0 to 27
[4] = system: middle cerebral artery occlusion (MCAo); experiment: transient MCAo in SD rats, infarct volume (TTC histology); format: in vivo, Sprague-Dawley rat
[5] = system: caspase-3; experiment: NMDA-induced caspase-3 cleavage in neurons; format: cell-based, rat; details: neuronal cultures
[6] = target: T2, JNK2 (Rattus norvegicus, UniProt P49186); experiment: kinase assay (KA) on JNK2 immunoprecipitated from cell lysates; format: cell-based; details: for JNK2 activity normalized to 0 h: NMDA + NIMoE
T2 construct: JNK is immunoprecipitated from the cell lysate; endogenous in cells; host or cells: rat primary neuronal cultures; JNK2 immunoprecipitated from lysate
Protocol: as §1

[7] = target: T3, JNK1 (Rattus norvegicus, UniProt P49185); experiment: kinase assay (KA) on JNK1 immunoprecipitated from cell lysates; format: cell-based; details: for JNK1 activity normalized to 0 h: NMDA + NIMoE
T3 construct: JNK is immunoprecipitated from the cell lysate; endogenous in cells; host or cells: rat primary neuronal cultures; JNK1 immunoprecipitated from lysate
Protocol: as §1

[8] = system: Bax and Cyt.c; experiment: NMDA-induced translocation of Bax and Cyt.c (mitochondria fractionation); format: cell-based, rat; details: neuronal cultures
Protocol: Cultured neurons were lysed on ice for 10 min in TEEN-SKM buffer containing 20 mM Tris-HCl (pH7.5), 10 mM KCl, 1.5 mM MgCl2, 1 mM EGTA, 1 mM EDTA, 1 mM DTT supplemented with the Complete Protease Inhibitor tablets. The lysates were homogenized with a 28^1/2G syringe for a total of 8 times on ice, followed by centrifugation twice at 700 g for 10 min at 4° C. The supernatant was then centrifuged at 10,000 g for 30 min at 4° C. to enrich mitochondria in the pellet. The cytosolic fraction was collected from the supernatant after further centrifugation at 100,000 g for 1 h at 4° C. 1× and 4×LB were added to the mitochondrial and cytosolic fractions, respectively. Equivalent amounts of samples were resolved by SDS-PAGE and blotted with antibodies against Cytochrome c and Bax.

[9] = peptide given 4 h after MCAo onset, day-1
[10] = peptide given 4 h after MCAo onset, day-3
[11] = peptide given 4 h after MCAo onset, day-7
[12] = peptide given 4 h after MCAo onset, day-14

T3 sequence (P49185 whole entry): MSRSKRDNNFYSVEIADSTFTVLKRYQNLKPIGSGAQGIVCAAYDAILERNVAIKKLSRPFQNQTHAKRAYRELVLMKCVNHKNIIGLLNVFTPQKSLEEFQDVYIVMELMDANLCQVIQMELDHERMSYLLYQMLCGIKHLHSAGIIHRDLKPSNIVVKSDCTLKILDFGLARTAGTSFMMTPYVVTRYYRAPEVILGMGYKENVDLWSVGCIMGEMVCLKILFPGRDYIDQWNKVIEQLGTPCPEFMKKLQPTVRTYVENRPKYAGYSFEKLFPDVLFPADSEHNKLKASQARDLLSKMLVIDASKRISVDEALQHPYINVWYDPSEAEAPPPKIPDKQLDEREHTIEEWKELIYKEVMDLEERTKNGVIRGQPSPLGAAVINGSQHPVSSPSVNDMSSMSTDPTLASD
T1 sequence (P49187 whole entry): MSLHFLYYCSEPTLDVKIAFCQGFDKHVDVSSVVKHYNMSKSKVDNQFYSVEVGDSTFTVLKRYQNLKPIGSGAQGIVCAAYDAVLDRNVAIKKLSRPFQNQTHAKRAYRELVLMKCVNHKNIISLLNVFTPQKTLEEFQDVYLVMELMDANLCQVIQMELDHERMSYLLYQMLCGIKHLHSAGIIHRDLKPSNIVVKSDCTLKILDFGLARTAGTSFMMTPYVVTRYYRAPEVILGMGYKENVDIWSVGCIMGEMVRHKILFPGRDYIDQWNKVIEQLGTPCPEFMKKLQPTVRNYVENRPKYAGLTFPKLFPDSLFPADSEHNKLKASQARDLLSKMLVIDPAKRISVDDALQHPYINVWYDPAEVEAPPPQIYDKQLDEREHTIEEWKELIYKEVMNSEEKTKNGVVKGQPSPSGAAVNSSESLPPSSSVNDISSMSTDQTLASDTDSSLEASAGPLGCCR
zD17-JNK3 interaction, sequence (P49187 whole entry): as above

## HRYRWLTDLLSMVTTPAAPM (NIMoEscr scrambled NIMoE) [negative control peptide resulting from a scrambled NIMoE, reference compound]
[1]; neuronal cultures
  enhancement of JNK3 activity induced by NMDA: did not selectively block enhancement
[2]
  enhancement of the zD17-JNK3 interaction induced by NMDA/excitotoxicity: did not selectively block enhancement
[3]; 22 h after onset of MCAo, scrambled control peptide group
  neurological scores: 18.60±1.24
[3]; [9]
  neurological scores: 19.25±0.80
[3]; [10]
  neurological scores: 13.63±1.03
[3]; [11]
  neurological scores: 7.13±0.58
[3]; [12]
  neurological scores: 4.38±0.50
[4]; scrambled control peptide group, injection time not given
  total infarct volume: 212.60±37.6 mm^3

## MTPLMWAAYRTHSVDPTRLL (listed as Homo sapiens) [NIMoE, peptide comprising motif-E of zD17, fused to the cell-membrane transduction domain of HIV-1 Tat for cell experiments]
[5]
  NMDA-induced caspase-3 cleavage: effectively blocked
[6]; 0.5 h
  JNK2 activity normalized to 0 h: 103.7±5.0%
[6]; 1 h
  JNK2 activity normalized to 0 h: 90.9±10.9%
[6]; NMDA, neuronal cultures
  enhancement of JNK2 activity: eliminated the enhancement
[7]; 0.5 h
  JNK1 activity normalized to 0 h: 104.3±2.6%
[7]; 1 h
  JNK1 activity normalized to 0 h: 168.5±3.3%
[7]; NMDA, neuronal cultures
  normal activation of JNK1: did not inhibit
[1]; 0.5 h
  JNK3 activity normalized to 0 h: 90.6±5.3%
[1]; 1 h
  JNK3 activity normalized to 0 h: 47.0±17.6%
[1]; neuronal cultures
  JNK3 basal activity: no effect
  enhancement of JNK3 activity induced by NMDA: selectively blocked the enhancement
[1]; pretreatment of cells 1 μM for 2 h
  JNK3 basal activity, fold change to control: 0.89±0.10 fold
[2]
  enhancement of the zD17-JNK3 interaction induced by NMDA/excitotoxicity: selectively blocked the enhancement
[2]; no NMDA
  zD17-JNK3 interaction (co-immunoprecipitation), baseline: no effect
[8]
  NMDA-induced translocation of Bax and Cyt.c: inhibited

## WAAYRTHSVD (listed as Homo sapiens) [NIMoEsh, shorter 10mer of NIMoE, primarily the loop region of motif-E (zD17 196-205)]
[5]
  NMDA-induced caspase-3 cleavage: effectively blocked
[3]; 22 h after onset of MCAo, injection +2 h
  neurological scores: 8.50±0.75
[3]; 22 h after onset of MCAo, injection +4 h
  neurological scores: 11.20±1.49
[3]; 22 h after onset of MCAo, injection −0.5 h, scale 0 to 27
  neurological scores: 8.00±0.72
[3]; [9]
  neurological scores: 11.43±1.96
[3]; [10]
  neurological scores: 5.86±1.14
[3]; [11]
  neurological scores: 1.71±0.47
[3]; [12]
  neurological scores: 0.85±0.34
[4]; post-surgical interventions at 2 h or 4 h
  infarct volume compared with non-treated, saline-treated and scramble peptide-treated groups: effective protection for the ischemic brain
[4]; single i.v. injection +2 h after MCAo onset
  total infarct volume: 41.95±8.22 mm^3
[4]; single i.v. injection +4 h after MCAo onset
  total infarct volume: 78.74±28.50 mm^3
[4]; single i.v. injection −0.5 h (before MCAo onset), control 240.70±35.67
  total infarct volume: 43.43±9.82 mm^3
[4]; single intravenous injection 30 min before MCAo
  reduction of total infarct size: about 80%
[8]
  NMDA-induced translocation of Bax and Cyt.c: inhibited
